Experimental findings from patent EP1911451A1, “Protein-kinase CK2 inhibitors and their therapeutic applications” (INSERM (Institut National de la Santé et de la Recherche …, priority 2006, dated 2008) are described below.

Read-outs that look alike come from different tables or passages of the source.

The test system of one data set is A549 cells. As to the kind of experiment: Cancer cell viability (Cell Titer Glo kit). In kind it is cell-based. Particulars: increasing concentrations, 48 hours. How it is done: (§1) Lineweaver-Burk inhibition plots of CK2α in the presence of different concentrations of Quinobene (0; 0.1; 0.2; 0.4; 0.8 µM). • (A) variable concentrations of ATP with Peptide] = 500 µM. (B) variable concentrations of Peptide with [ATP] = 200 µM. […] Lineweaver-Burk inhibition plots of CK2α in the presence of different concentrations of CCB8 (0; 1.1; 2.2 µM for ATP competition assay; 0; 1.1 µM for peptide competition assay). (A) variable concentrations of ATP with [Peptide] = 166 µM. (B) variable concentrations of Peptide with [ATP] = 25 µM. […] A549 cells were treated for 48 hours with increasing concentrations of CCB8 (σ) or Naphtobene (ν). Cell viability was evaluated with the Cell Titer Glo kit (Promega).
A549 cells were treated with increasing concentrations of TBB 4,5,6,7-TetraBromoBenzotriazole (Calbiochem®) or Quinobene for 48 hours and the cell viability was monitored.

In data set [1] the target is T1, CK2α (Homo sapiens, UniProt P68400). As to the kind of experiment: Lineweaver-Burk inhibition plots (ATP and peptide competition). In kind it is biochemical. Particulars: for mode of inhibition: with respect to ATP or the phosphoacceptor peptide. The procedure:
as §1

The target in data set [2] is T1, CK2α. As to the kind of experiment: in vitro CK2 kinase assay (inhibition of catalytic activity). In kind it is biochemical. The procedure:
as §1
4,4'-bis(8-hydroxy-5-sulfo-7-quinolineazo)stilbene-2,2'-disulfonic acid (Quinobene) or 4,4'-[(1-hydroxy-4-sulfo-2-naphtyl)azo] 2,2'-stilbenedisulfonic acid (Naphtobene) were obtained from the National Cancer Institute and screened for CK2 inhibitors using an in vitro CK2 kinase assay (Filhol et al., 1991).
CCB8 was tested in the in vitro CK2 assay.

The subject of data set [3] is non-small cell lung cancer cells (A549). As to the kind of experiment: Confocal microscopic analysis of cell uptake. Particulars: 100 µM, 48 hours, confocal microscopy. In kind it is cell-based.
Where [4] appears, read: inhibition of CK2 catalytic activity, dose-dependent (Figure 2), read-out: half-maximal effective concentration.
Where [5] appears, read: inhibition of the catalytic activity of recombinant CK2α, read-out: IC50.

T1 sequence (P68400 whole entry): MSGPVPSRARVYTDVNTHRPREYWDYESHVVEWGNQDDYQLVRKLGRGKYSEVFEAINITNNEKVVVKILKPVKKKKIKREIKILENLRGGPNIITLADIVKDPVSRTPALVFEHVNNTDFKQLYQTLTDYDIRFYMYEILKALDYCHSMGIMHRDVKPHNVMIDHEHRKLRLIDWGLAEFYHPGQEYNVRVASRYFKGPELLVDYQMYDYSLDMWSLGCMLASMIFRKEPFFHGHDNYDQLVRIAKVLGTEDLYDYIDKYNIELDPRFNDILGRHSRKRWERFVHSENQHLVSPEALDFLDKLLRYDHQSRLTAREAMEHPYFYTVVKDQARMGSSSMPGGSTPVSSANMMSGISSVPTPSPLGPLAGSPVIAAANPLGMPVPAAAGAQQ

Broadly, the Ki is the dissociation constant of the complex between target and ligand, obtained from inhibition or displacement. `Nc1ccc(C(=O)O)cc1N=Nc1ccc(C=Cc2ccc(N=Nc3cc(C(=O)O)ccc3N)cc2S(=O)(=O)O)c(S(=O)(=O)O)c1` [CCB8]: the “cell viability / proapoptotic efficacy” value in the data set with A549 cells was “potency correlates with its proapoptotic efficacy”. Moreover, the Ki at CK2α [1] (deduced from Lineweaver-Burk graph (Figure 5), read-out: Ki constant) was found to be 85 nM. The mode of inhibition result on CK2α [1] is “non-competitive inhibitor”. Further, the IC50 at CK2α [2] (inhibition of the catalytic activity of recombinant CK2α) is 600 nM.
As to `O=S(=O)(O)c1cc(/N=N/c2cc(S(=O)(=O)O)c3ccccc3c2O)ccc1/C=C/c1ccc(/N=N/c2cc(S(=O)(=O)O)c3ccccc3c2O)cc1S(=O)(=O)O` [Naphtobene, 4,4'-[(1-hydroxy-4-sulfo-2-naphtyl)azo] 2,2'-stilbenedisulfonic acid], in the data set on A549 cells, the “cell viability / proapoptotic efficacy” value is reported as “potency correlates with its proapoptotic efficacy”. The cell permeability result in data set [3] is given as “cell permeable”. Besides, the IC50 on CK2α [2] (setting [4]) and at CK2α [2] (setting [5]) was 300 nM throughout.
With `O=S(=O)(O)c1cc(/N=N/c2cc(S(=O)(=O)O)c3cccnc3c2O)ccc1/C=C/c1ccc(/N=N/c2cc(S(=O)(=O)O)c3cccnc3c2O)cc1S(=O)(=O)O` [Quinobene, 4,4'-bis(8-hydroxy-5-sulfo-7-quinolineazo)stilbene-2,2'-disulfonic acid], the “cell viability / proapoptotic efficacy” value in the data set on A549 cells was “potency correlates with its proapoptotic efficacy”. For the same compound, on CK2α [1], the mode of inhibition entry was “non-competitive inhibitor”. In addition, the IC50 on CK2α [2] (setting [4]) and at CK2α [2] (setting [5]) was 130 nM in each case.
